The record followed here is patent US7528148B2, “Pyrazolo[3,4-B]pyridine compounds, and their use as phosphodiesterase inhibitors” (Glaxo Group Limited, priority 2002, dated 2009).

The structures appear in SMILES notation.

The test system of the series is pica feeding response of rats. In words: In Vivo Assay 2: rat pica model of emesis. The settings on record: oral dosing, upper end given as greater than about 50 mg/kg. The source says: In Vivo Assay 2. Rat Pica Model of Emesis
However, a side effect of some PDE4 inhibitors in many species is emesis. Because many rat models of inflammation are well characterized, they have been used in procedures (see e.g. In Vivo Assay 1 above) to show beneficial anti-inflammatory effects of PDE 4 inhibitors. However rats have no emetic response (they have no vomit reflex), so that the relationship between beneficial anti-inflammatory effects of PDE 4 inhibitors and emesis is difficult to study directly in rats.
Pica feeding is a behavioural response to illness in rats wherein rats eat non-nutritive substances such as earth or in particular clay (e.g. kaolin) which may help to absorb toxins. Pica feeding can be induced by motion and chemicals (especially chemicals which are emetic in humans), and can be inhibited pharmacologically with drugs that inhibit emesis in humans. The Rat Pica Model, In Vivo Assay 2, can determine the level of pica response of rats to PDE 4 inhibition at pharmacologically relevant doses in parallel to in vivo anti-inflammatory Assays in (a separate set of) rats (e.g. In Vivo Assay 1 above). Anti-inflammatory and pica assays in the same species together can provide data on the “therapeutic index” (TI) in the rat of the compounds/salts of the invention. The Rat TI can for example be calculated as the ratio of a) the potentially-emetic Pica Response ED50 dose from Assay 2 to b) the rat anti-inflammatory ED50 dose (e.g. measured by rat neutrophilia-inhibition in eg In Vivo Assay 1), with larger TI ratios possibly indicating lower emesis at many anti-inflammatory doses. This might allow a choice of a non-emetic or minimal-emetic pharmaceutical dose of the compounds or salts of the invention which has an anti-inflammatory effect. It is recognised however that achieving a low-emetic PDE4 inhibitory compound is not essential to the invention.
Procedure: On the first day of the experiment, the rats are housed individually in cages without bedding or “enrichment”. The rats are kept off of the cage floor by a wire screen. Pre-weighed food cups containing standard rat chow and clay pellets are placed in the cage. The clay pellets, obtainable from Languna Clay Co, City of Industry, Calif., USA, are the same size and shape as the food pellets. The rats are acclimated to the clay for 72 hours, during which time the cups and food and clay debris from the cage are weighed daily on an electronic balance capable of measuring to the nearest 0.1 grams. By the end of the 72 hour acclimation period the rats generally show no interest in the clay pellets.
At the end of 72 hours the rats are placed in clean cages and the food cups weighed. Rats that are still consuming clay regularly are removed from the study. […] The food and clay cups and cage debris are weighed the following day and the total clay and food consumed that night by each individual animal is calculated.
A dose response is calculated by first converting the data into quantal response, where animals are either positive or negative for the pica response. A rat is “pica positive” if it consumes greater than or equal to 0.3 grams of clay […] using logistic regression performed by the Statistica software statistical package. A Pica Response ED50 value in mg per kg of body weight can then be calculated. […]
`CCn1ncc2c(NC3CCOCC3)c(-c3nnc(C4CCOCC4)o3)cnc21` [Example 38, 1-Ethyl-N-(tetrahydro-2H-pyran-4-yl)-5-[5-(tetrahydro-2H-pyran-4-yl)-1,3,4-oxadiazol-2-yl]-1H-pyrazolo[3,4-b]pyridin-4-amine]: the ED50 fell in the range of 2 to 50 mg/kg.
As for `CCn1ncc2c(NC3CCOCC3)c(-c3nnc(CS(C)(=O)=O)o3)cnc21` [Example 23, 1-Ethyl-5-{5-[(methylsulfonyl)methyl]-1,3,4-oxadiazol-2-yl}-N-(tetrahydro-2H-pyran-4-yl)-1H-pyrazolo[3,4-b]pyridin-4-amine], the ED50 was 2 to 50 mg/kg.
In turn, `CCn1ncc2c(NC3CCOCC3)c(-c3nnc(C(C)(C)C)o3)cnc21` [Example 17, 5-(S-Tert-butyl-1,3,4-oxadiazol-2-yl)-1-ethyl-N-(tetrahydro-2H-pyran-4-yl)-1H-pyrazolo[3,4-b]pyridin-4-amine] yielded an ED50 of 2 to 50 mg/kg.
Turning to `CCn1ncc2c(NC3CCOCC3)c(-c3nnc(CN4CCN(C)CC4)o3)cnc21` [Example 35, 1-Ethyl-5-{5-[(4-methylpiperazin-1-yl)methyl]-1,3,4-oxadiazol-2-yl}-N-(tetrahydro-2H-pyran-4-yl)-1H-pyrazolo[3,4-b]pyridin-4-amine], the ED50 was 2 to 50 mg/kg.
Compound `CCn1ncc2c(NC3CCOCC3)c(-c3nnc(C)o3)cnc21` [Example 14, 1-Ethyl-5-(5-methyl-1,3,4-oxadiazol-2-yl)-N-(tetrahydro-2H-pyran-4-yl)-1H-pyrazolo[3,4-b]pyridin-4-amine] came in with an ED50 of 2 to 50 mg/kg.
